Assay results published in patent US10377709B2, “Carboxamide derivatives and the use thereof as medicaments for the treatment of hepatitis B” (Janssen Sciences Ireland UC, priority 2013, dated 2019).

Tests used:
[1] = system: HBV; assay: Anti-HBV activity in HepG2.2.15 stable transfected cell line (HBV DNA from secreted virions, realtime PCR); assay type: cell-based, Hepatitis B virus; settings: HepG2.2.15 cells, 6 days of treatment, HBV DNA from secreted virions by realtime PCR
[2] = system: HBV; assay: Anti-HBV activity in HepG2.117 inducible HBV producing cell line (intracellular HBV DNA, realtime PCR); assay type: cell-based, Hepatitis B virus; settings: HepG2.117 cells (Tet-off), 3 days of treatment, intracellular HBV DNA by realtime PCR
[3] = Cytotoxicity in HepG2 cells (Resazurin assay); assay type: cell-based; settings: human, incubated 4 days, viability by Resazurin assay
[4] = Hepatitis B virus, HepG2.2.15, 144 h
[5] = Hepatitis B virus, HepG2.117, 72 h

Work on `C[C@@H](NC(=O)C(=O)N1CC[C@H](C(=O)Nc2ccc(F)c(Cl)c2F)C1)C(F)(F)F` [Compound 21, (3S)-N-(3-chloro-2,4-difluoro-phenyl)-1-[2-oxo-2-[[(1R)-2,2,2-trifluoro-1-methyl-ethyl]amino]acetyl]pyrrolidine-3-carboxamide] yielded an EC50 [1, 4] of 63 nM, an EC50 [2, 5] of 63 nM and a CC50 at 4 days [3] greater than 25000 nM.
With `C[C@H](NC(=O)C(=O)N1CC[C@H](C(=O)Nc2ccc(F)c(C(F)F)c2)C1)C(F)(F)F` [Compound 30, (3S)-N-[3-(difluoromethyl)-4-fluoro-phenyl]-1-[2-oxo-2-[[(1 S)-2,2,2-trifluoro-1-methyl-ethyl]amino]acetyl]pyrrolidine-3-carboxamide] the EC50 [1, 4] was 161 nM, the EC50 [2, 5] was 125 nM and the CC50 at 4 days [3] was greater than 25000 nM.
Molecule `CC(C)NC(=O)C(=O)N1CCC(C(=O)Nc2ccc(F)c(C#N)c2)[C@@H]1C` (stereo partly drawn) [Compound 27, (2S)-N-(3-cyano-4-fluoro-phenyl)-1-[2-(isopropylamino)-2-oxo-acetyl]-2-methyl-pyrrolidine-3-carboxamide] has an EC50 [1, 4] of 119 nM, an EC50 [2, 5] of 126 nM and a CC50 at 4 days [3] greater than 25000 nM.
Work on `CC(C)(C)NC(=O)C(=O)N1CC[C@H](C(=O)Nc2ccc(F)c(C#N)c2)C1` [Compound 20, (3S)-1-[2-(tert-butylamino)-2-oxo-acetyl]-N-(3-cyano-4-fluorophenyl)-pyrrolidine-3-carboxamide] yielded an EC50 [1, 4] of 289 nM, an EC50 [2, 5] of 645 nM and a CC50 at 4 days [3] greater than 25000 nM.
Molecule `Cc1cc(NC(=O)[C@H]2CCN(C(=O)C(=O)NC3(C)COC3)[C@H]2C)ccc1F` [Compound 10, (2S,3S)-N-(4-Fluoro-3-methylphenyl)-2-methyl-1-{[(3-methyloxetan-3-yl)-amino](oxo)acetyl}pyrrolidine-3-carboxamide] has an EC50 [1, 4] of 8 nM, an EC50 [2, 5] of 9 nM and a CC50 at 4 days [3] greater than 25000 nM.
Molecule `C[C@H]1[C@H](C(=O)Nc2cc(F)c(F)c(Cl)c2)CCN1C(=O)C(=O)N[C@H](C)C(F)(F)F` [Compound 33a, (2S,3R)—N-(3-chloro-4,5-difluoro-phenyl)-2-methyl-1-[2-oxo-2-[[(1R)-2,2,2-trifluoro-1-methyl-ethyl]amino]acetyl]pyrrolidine-3-carboxamide] has an EC50 [2, 5] greater than 500 nM and a CC50 at 4 days [3] greater than 25000 nM.
`C[C@@H](NC(=O)C(=O)N1CC[C@H](C(=O)Nc2ccc(F)c(C(F)(F)F)c2)C1)C(F)(F)F` [Compound 14, (S)-N-(4-fluoro-3-(trifluoromethyl)phenyl)-1-(2-oxo-2-(((R)-1,1,1-trifluoropropan-2-yl)amino)acetyl)pyrrolidine-3-carboxamide] showed an EC50 [1, 4] of 64 nM, an EC50 [2, 5] of 45 nM and a CC50 at 4 days [3] greater than 25000 nM.
`C[C@H]1[C@@H](C(=O)Nc2cc(F)c(F)c(Cl)c2)CCN1C(=O)C(=O)N[C@H](C)C(F)(F)F` [Compound 33b, (2S,3S)-N-(3-chloro-4,5-difluoro-phenyl)-2-methyl-1-[2-oxo-2-[[(1R)-2,2,2-trifluoro-1-methyl-ethyl]amino]acetyl]pyrrolidine-3-carboxamide] gave an EC50 [2, 5] of 5 nM and a CC50 at 4 days [3] greater than 25000 nM.
`C[C@H]1[C@H](C(=O)Nc2cc(F)c(F)c(F)c2)CCN1C(=O)C(=O)N[C@H](C)C(F)(F)F` [Compound 34a, (2S,3R)-2-methyl-1-[2-oxo-2-[[(1R)-2,2,2-trifluoro-1-methyl-ethyl]amino]acetyl]-N-(3,4,5-trifluorophenyl)pyrrolidine-3-carboxamide] gave an EC50 [2, 5] greater than 500 nM and a CC50 at 4 days [3] greater than 25000 nM.
`O=C(NC1(C(F)(F)F)CC1)C(=O)N1CC[C@H](C(=O)Nc2ccc(F)c(Cl)c2)C1` [Compound 25, (3S)-N-(3-chloro-4-fluoro-phenyl)-1-[2-oxo-2-[[1-(trifluoromethyl)cyclopropyl]amino]acetyl]pyrrolidine-3-carboxamide] showed an EC50 [1, 4] of 42 nM, an EC50 [2, 5] of 31 nM and a CC50 at 4 days [3] greater than 25000 nM.
With `CC(C)(C)NC(=O)C(=O)N1CC[C@H](C(=O)Nc2cc(F)c(F)c(Br)c2)C1` [Compound 3, (S)-N-(3-bromo-4,5-difluorophenyl)-1-(2-(tert-butylamino)-2-oxoacetyl)-pyrrolidine-3-carboxamide] the EC50 [1, 4] was 141 nM, the EC50 [2, 5] was 26 nM and the CC50 at 4 days [3] was greater than 25000 nM.
In the case of `CC(C)NC(=O)C(=O)N1CCC(C(=O)Nc2ccc(F)c(Cl)c2F)[C@@H]1C` (stereo partly drawn) [Compound 28, (2S)-N-(3-chloro-2,4-difluoro-phenyl)-1-[2-(isopropylamino)-2-oxo-acetyl]-2-methyl-pyrrolidine-3-carboxamide], the EC50 [1, 4] is reported as 50 nM, the EC50 [2, 5] is reported as 83 nM and the CC50 at 4 days [3] is reported as greater than 25000 nM.
Work on `CC(C)NC(=O)C(=O)N1CC[C@H](C(=O)Nc2ccc(F)c(C(F)F)c2)C1` [Compound 31, (3S)-N-[3-(difluoromethyl)-4-fluoro-phenyl]-1-[2-(isopropylamino)-2-oxo-acetyl]pyrrolidine-3-carboxamide] yielded an EC50 [1, 4] of 134 nM, an EC50 [2, 5] of 143 nM and a CC50 at 4 days [3] greater than 25000 nM.
With `C[C@H](NC(=O)C(=O)N1CC[C@H](C(=O)Nc2ccc(F)c(Cl)c2)C1)C(F)(F)F` [Compound 26, (3S)-N-(3-chloro-4-fluoro-phenyl)-1-[2-oxo-2-[[(1S)-2,2,2-trifluoro-1-methyl-ethyl]amino]acetyl]pyrrolidine-3-carboxamide] the EC50 [1, 4] was 168 nM, the EC50 [2, 5] was 122 nM and the CC50 at 4 days [3] was greater than 25000 nM.
Work on `C[C@@H](NC(=O)C(=O)N1CC[C@H](C(=O)Nc2ccc(F)c(C#N)c2)C1)C(F)(F)F` [Compound 22, (3S)-N-(3-cyano-4-fluoro-phenyl)-1-[2-oxo-2-[[(1R)-2,2,2-trifluoro-1-methyl-ethyl]amino]acetyl]pyrrolidine-3-carboxamide] yielded an EC50 [1, 4] of 110 nM, an EC50 [2, 5] of 128 nM and a CC50 at 4 days [3] greater than 25000 nM.
Work on `Cc1cc(NC(=O)[C@H]2CCN(C(=O)C(=O)NC(C)C)C2)ccc1F` [Compound 4, (3S)-N-(4-Fluoro-3-methylphenyl)-1-{[(1-methylethyl)amino] (oxo)acetyl}-pyrrolidine-3-carboxamide] yielded an EC50 [1, 4] of 126 nM, an EC50 [2, 5] of 71 nM and a CC50 at 4 days [3] greater than 25000 nM.
For `Cc1cc(NC(=O)[C@H]2CCN(C(=O)C(=O)NC3(C)COC3)C2)ccc1F` [Compound 7, (3S)-N-(4-Fluoro-3-methylphenyl)-1-{[(3-methyloxetan-3-yl)amino]-(oxo)acetyl}pyrrolidine-3-carboxamide], the EC50 [1, 4] was 67 nM, the EC50 [2, 5] was 117 nM and the CC50 at 4 days [3] was greater than 25000 nM.
Work on `CC(C)NC(=O)C(=O)N1CCC(C(=O)Nc2cc(F)c(F)c(Cl)c2)[C@@H]1C` (stereo partly drawn) [Compound 29, (2S)-N-(3-chloro-4,5-difluoro-phenyl)-1-[2-(isopropylamino)-2-oxo-acetyl]-2-methyl-pyrrolidine-3-carboxamide] yielded an EC50 [1, 4] of 18 nM, an EC50 [2, 5] of 48 nM and a CC50 at 4 days [3] greater than 25000 nM.
With `CC(C)NC(=O)C(=O)N1CCC(C(=O)Nc2cc(F)c(F)c(Cl)c2)[C@@H]1C` (single isomer, unassigned) [Compound 29a] the EC50 [1] was 10 nM, the EC50 [2] was 11 nM and the CC50 at 4 days [3] was greater than 25000 nM.
In the case of `CC1C(C(=O)Nc2ccc(F)c(Cl)c2F)CCCN1C(=O)C(=O)N[C@H](C)C(F)(F)F` (single isomer, unassigned) [Compound 35a], the EC50 [1] is reported as greater than 1000 nM, the EC50 [2] is reported as greater than 1000 nM and the CC50 at 4 days [3] is reported as greater than 25000 nM.
Molecule `Cc1cc(NC(=O)[C@H]2CCN(C(=O)C(=O)N[C@H](C)CO)C2)ccc1F` [Compound 6, (S)-N-(4-fluoro-3-methylphenyl)-1-(2-(((R)-1-hydroxypropan-2-yl)amino)-2-oxoacetyl)pyrrolidine-3-carboxamide] has an EC50 [1, 4] of 301 nM, an EC50 [2, 5] of 257 nM and a CC50 at 4 days [3] greater than 25000 nM.
With `C[C@@H](NC(=O)C(=O)N1CCC(C(=O)Nc2cc(F)c(F)c(Cl)c2)C1(C)C)C(F)(F)F` (stereo partly drawn) [Compound 18, N-(3-chloro-4,5-difluoro-phenyl)-2,2-dimethyl-1-[2-oxo-2-[[(1R)-2,2,2-trifluoro-1-methyl-ethyl]amino]acetyl]pyrrolidine-3-carboxamide] the EC50 [2, 5] was 670 nM and the CC50 at 4 days [3] was greater than 25000 nM.
Work on `CC[C@@H](C)NC(=O)C(=O)N1CC[C@H](C(=O)Nc2ccc(F)c(C(F)(F)F)c2)C1` [Compound 24, (3S)-N-[4-fluoro-3-(trifluoromethyl)phenyl]-1-[2-[[(1R)-1-methylpropyl]-amino]-2-oxo-acetyl]pyrrolidine-3-carboxamide] yielded an EC50 [1, 4] of 134 nM, an EC50 [2, 5] of 384 nM and a CC50 at 4 days [3] greater than 25000 nM.
For `C[C@@H](NC(=O)C(=O)N1CC[C@H](C(=O)Nc2ccc(F)c(Cl)c2)C1)C(F)(F)F` [Compound 15, (S)-N-(3-chloro-4-fluorophenyl)-1-(2-oxo-2-(((R)-1,1,1-trifluoropropan-2-yl)amino)acetyl)pyrrolidine-3-carboxamide], the EC50 [1, 4] was 25 nM, the EC50 [2, 5] was 47 nM and the CC50 at 4 days [3] was greater than 25000 nM.
`CC(C)NC(=O)C(=O)N1CC[C@H](C(=O)Nc2ccc(F)c(C(F)(F)F)c2)C1` [Compound 23, (3S)-N-[4-fluoro-3-(trifluoromethyl)phenyl]-1-[2-(isopropylamino)-2-oxo-acetyl]pyrrolidine-3-carboxamide] gave an EC50 [1, 4] of 380 nM, an EC50 [2, 5] of 575 nM and a CC50 at 4 days [3] greater than 25000 nM.
In the case of `CC(C)(C)NC(=O)C(=O)N1CC[C@H](C(=O)Nc2ccc(F)c(Cl)c2F)C1` [Compound 19, (3S)-1-[2-(tert-butylamino)-2-oxo-acetyl]-N-(3-chloro-2,4-difluoro-phenyl)pyrrolidine-3-carboxamide], the EC50 [1, 4] is reported as 496 nM, the EC50 [2, 5] is reported as 449 nM and the CC50 at 4 days [3] is reported as greater than 25000 nM.
Molecule `C[C@@H](NC(=O)C(=O)N1CC[C@H](C(=O)Nc2cc(F)c(F)c(Cl)c2)C1)C(F)(F)F` [Compound 11, (S)-N-(3-chloro-4,5-difluorophenyl)-1-(2-oxo-2-(((R)-1,1,1-trifluoropropan-2-yl)amino)acetyl)pyrrolidine-3-carboxamide] has an EC50 [1, 4] of 32 nM, an EC50 [2, 5] of 17 nM and a CC50 at 4 days [3] greater than 25000 nM.
Work on `C[C@H]1[C@@H](C(=O)Nc2cc(F)c(F)c(F)c2)CCN1C(=O)C(=O)N[C@H](C)C(F)(F)F` [Compound 34b, (2S,3S)-2-methyl-1-[2-oxo-2-[[(1R)-2,2,2-trifluoro-1-methyl-ethyl]amino]acetyl]-N-(3,4,5-trifluorophenyl)pyrrolidine-3-carboxamide] yielded an EC50 [2, 5] of 4 nM and a CC50 at 4 days [3] greater than 25000 nM.
